The molecules below were run against T1, B-Raf V600E (Homo sapiens, UniProt P15056, V600E) (assay: AlphaScreen kinase assay, B-Raf V600E). Conditions: read-out: IC50, activity toward kinase B-Raf V600E.
T1 construct: P4254. pFastBacBD-CDC37 BRAF D437-K722-X, V600E; His6 with pFastBac HT leader (TEV site) (N); made in house; host or cells: Sf9 (baculovirus; chaperone CDC37 co-expressed)
Assay type: biochemical

T1 sequence (P15056 with tags, fused parts or gaps V600E): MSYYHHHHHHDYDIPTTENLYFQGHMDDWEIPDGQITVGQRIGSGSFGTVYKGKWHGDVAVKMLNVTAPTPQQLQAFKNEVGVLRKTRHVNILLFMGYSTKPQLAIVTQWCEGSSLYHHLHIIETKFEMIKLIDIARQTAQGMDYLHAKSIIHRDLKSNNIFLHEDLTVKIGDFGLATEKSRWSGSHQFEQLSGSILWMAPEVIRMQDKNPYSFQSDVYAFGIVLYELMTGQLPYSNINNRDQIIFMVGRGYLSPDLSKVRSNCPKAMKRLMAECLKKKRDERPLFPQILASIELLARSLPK

IC50, ≤ 10 µM:
CC(C)(C)Oc1ccc(Cc2c[nH]c3ncccc23)cn1 [Compound P-0819]
c1ccc(Cc2nc(-c3ccnc4[nH]ccc34)no2)cc1 [Compound P-0381]
COC(c1ccc(N(Cc2ccc(Cl)cc2)C(=O)OC(C)(C)C)nc1)c1c[nH]c2ncccc12 (stereo not shown) [Compound P-1183]
COc1ccc(Cc2nc(-c3ccnc4[nH]ccc34)no2)cc1 [Compound P-0696]
FC(F)(F)Oc1cccc(Cc2c[nH]c3nccc(Br)c23)c1 [Compound P-1123]
Cc1cc(-c2nc(-c3ccnc4[nH]ccc34)no2)n(C(C)(C)C)n1 [Compound P-0893]
N#Cc1ccc(CCc2c[nH]c3ncccc23)cc1 [Compound P-1199]
Fc1cc(F)cc(-c2ccnc3[nH]cc(Sc4ccccc4)c23)c1 [Compound P-0311]
O=C(Nc1ccc(Cc2c[nH]c3ncccc23)cc1)c1ccccc1 [Compound P-0803]
CCCCN(c1ccc(F)c(Cc2c[nH]c3ncc(-c4cccnc4)cc23)c1F)S(=O)(=O)c1ccc(C(F)(F)F)cc1 [Compound P-1444]
Cc1nc2ccc(Nc3cnc4[nH]ccc4c3)cc2s1 [Compound P-1030]
COc1ccccc1-c1c[nH]c2ncccc12 [Compound P-0358]
Cn1nc(C(C)(C)C)cc1-c1nc(-c2c[nH]c3ncccc23)no1 [Compound P-1177]
O=C(c1c(F)ccc(N(Cc2ccccc2)Cc2ccccc2)c1F)c1c[nH]c2ncc(-c3cccnc3)cc12 [Compound P-1074]
CC(C)(C)OC(=O)Nc1ccc(-c2c[nH]c3ncccc23)cc1 [Compound P-1195]
OCc1cccc(-c2ccnc3[nH]cc(Sc4ccc(Cl)cc4)c23)c1 [Compound P-0388]
FC(F)(F)c1cccc(-c2ccnc3[nH]cc(Sc4cccs4)c23)c1 [Compound P-0651]
CCC(C)Cc1c[nH]c2ncccc12 (stereo not shown) [Compound P-0386]
Cc1cc(C)cc(-c2ccnc3[nH]cc(Sc4cccs4)c23)c1 [Compound P-0255]
Fc1cccc(Nc2cnc3[nH]ccc3c2)c1 [Compound P-1035]
O=C(c1cc([N+](=O)[O-])ccc1Cl)c1c[nH]c2ncccc12 [Compound P-0592]
Cn1ccc2cc(-c3c[nH]c4ncccc34)ccc21 [Compound P-0713]
c1cnc2[nH]cc(-c3noc(CCC4CCCC4)n3)c2c1 [Compound P-0833]
CCC(C)c1ccc(Nc2cnc3[nH]ccc3c2)cc1 (stereo not shown) [Compound P-1128]
OCc1cccc(-c2ccnc3[nH]cc(Sc4cc(Cl)cc(Cl)c4)c23)c1 [Compound P-0600]
Fc1ccc(Nc2cnc3[nH]ccc3c2)cc1 [Compound P-1091]
O=[N+]([O-])c1cccc(Sc2c[nH]c3nccc(-c4cc(F)cc(F)c4)c23)c1 [Compound P-0816]
O=C(c1c(F)ccc(NS(=O)(=O)c2ccc(-c3cnco3)cc2)c1F)c1c[nH]c2ncc(Cl)cc12 [Compound P-1843, N-[3-(5-Chloro-1H-pyrrolo[2,3-b]pyridine-3-carbonyl)-2,4-difluoro-phenyl]-4-oxazol-5-yl-benzenesulfonamide]
CN(C)S(=O)(=O)N(C)c1ccc(F)c(C(=O)c2c[nH]c3ncc(Cl)cc23)c1F [Compound P-1666]
COC(c1ccc(Br)cc1)c1c[nH]c2ncccc12 (stereo not shown) [Compound P-0552]
COc1ccc(-c2c[nH]c3ncccc23)cc1OCc1ccccc1 [Compound P-0886]
Oc1ccc(F)c(C(O)c2c[nH]c3ncc(Br)cc23)c1F (stereo not shown) [Compound P-1180, 3-[(5-Bromo-1H-pyrrolo[2,3-b]pyridin-3-yl)-hydroxy-methyl]-2,4-difluoro-phenol]
FC(F)(F)c1ccc(-c2c[nH]c3ncccc23)cc1 [Compound P-1179]
COc1ccc(S(=O)(=O)Nc2ccc(F)c(C(=O)c3c[nH]c4ncccc34)c2F)cc1OC [Compound P-1090, N-[2,4-Difluoro-3-(1H-pyrrolo[2,3-b]pyridine-3-carbonyl)-phenyl]-3,4-dimethoxy-benzenesulfonamide]
CC(C)(C)c1ccc(OCc2nc(-c3ccnc4[nH]ccc34)no2)cc1 [Compound P-1187]
CCCS(=O)(=O)Nc1cccc(C(O)c2c[nH]c3ncc(Br)cc23)c1C (stereo not shown) [Compound P-1607]
COc1cnc2[nH]cc(C(O)c3c(F)ccc(NS(=O)(=O)c4ccc(C(F)(F)F)cc4)c3F)c2c1 (stereo not shown) [Compound P-1540]
COC(=O)c1cccc(C#Cc2c[nH]c3ncc(-c4ccc(OC)c(OC)c4)cc23)c1 [Compound P-0646]
COc1ccc(OC)c(S(=O)(=O)Nc2ccc(F)c(C(=O)c3c[nH]c4ncccc34)c2F)c1 [Compound P-1131, N-[2,4-Difluoro-3-(1H-pyrrolo[2,3-b]pyridine-3-carbonyl)-phenyl]-2,5-dimethoxy-benzenesulfonamide]
CC(C)Oc1cccc(Nc2cnc3[nH]ccc3c2)c1 [Compound P-1049]
CC(C)(C)OC(=O)Nc1ccc(Cl)c(C(O)c2c[nH]c3ncccc23)c1F (stereo not shown) [Compound P-1140]

What follows are molecules tested against T2, FGFR1 (Homo sapiens, UniProt P11362, C488A/C584S) (assay: AlphaScreen kinase assay, FGFR1). Conditions: read-out: IC50, activity toward kinase FGFR.
T2 construct: P1351.pET N6 BI-PTP FGFR A458-E765-X C488A, C584S; made in house; host or cells: E. coli (PTP1B co-expressed)
T2 sequence (P11362 458-765 C488A/C584S): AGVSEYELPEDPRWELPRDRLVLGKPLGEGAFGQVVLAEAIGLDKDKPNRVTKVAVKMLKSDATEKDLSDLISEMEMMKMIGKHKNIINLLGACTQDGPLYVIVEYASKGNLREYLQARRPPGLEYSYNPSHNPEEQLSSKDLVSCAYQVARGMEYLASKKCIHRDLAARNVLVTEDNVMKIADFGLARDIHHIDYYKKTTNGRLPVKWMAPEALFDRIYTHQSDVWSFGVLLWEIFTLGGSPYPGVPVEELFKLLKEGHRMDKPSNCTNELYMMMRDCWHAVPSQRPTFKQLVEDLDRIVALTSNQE
Assay type: biochemical

IC50, ≤ 10 µM:
COc1cccc(Cc2c[nH]c3nccc(-c4cccc(OC)c4)c23)c1 [Compound P-0979]
CC(C)(C)Oc1ccc(Cc2c[nH]c3ncccc23)cn1 [Compound P-0819]
O=C(c1cccc(Cl)c1Cl)c1c[nH]c2ncc(Br)cc12 [Compound P-0294]
O=C(c1ccc2ccccc2n1)c1c[nH]c2ncccc12 [Compound P-0479]
Fc1cc(F)cc(Cc2c[nH]c3ncccc23)c1 [Compound P-0374]
FC(F)(F)Oc1cccc(Cc2c[nH]c3nccc(Br)c23)c1 [Compound P-1123]
COCCOc1ccc(F)c(C(=O)c2c[nH]c3ncc(OC)cc23)c1F [Compound P-1584, [2,6-Difluoro-3-(2-methoxy-ethoxy)-phenyl]-(5-methoxy-1H-pyrrolo[2,3-b]pyridin-3-yl)-methanone]
CCCNS(=O)(=O)c1ccc(NCC)c(C(=O)c2c[nH]c3ncccc23)c1F [Compound P-1273]
Cc1ccc(Cc2c[nH]c3ncccc23)cc1C [Compound P-0368]
CC(C)Nc1ccc(C(=O)c2c[nH]c3ncccc23)cn1 [Compound P-0227]
c1ccc2cc(Cc3c[nH]c4ncccc34)ccc2c1 [Compound P-0575]
Cc1cc(Cc2c[nH]c3ncccc23)ccc1F [Compound P-0510]
Cc1ccc(F)c(C(=O)c2c[nH]c3ncccc23)c1F [Compound P-1274]
COCCOc1ccc(F)c(Cc2c[nH]c3ncc(Br)cc23)c1F [Compound P-1454, 5-Bromo-3-[2,6-difluoro-3-(2-methoxy-ethoxy)-benzyl]-1H-pyrrolo[2,3-b]pyridine]
COc1ccc(Cc2c[nH]c3ncc(Br)cc23)c(F)c1 [Compound P-1322]
O=C(c1cccc([N+](=O)[O-])c1)c1c[nH]c2ncccc12 [Compound P-0219]
O=C(c1c(F)ccc(N(Cc2ccccc2)Cc2ccccc2)c1F)c1c[nH]c2ncc(-c3cccnc3)cc12 [Compound P-1074]
COCCOc1ccc(F)c(C(=O)c2c[nH]c3ncc(Br)cc23)c1F [Compound P-1453, (5-Bromo-1H-pyrrolo[2,3-b]pyridin-3-yl)-[2,6-difluoro-3-(2-methoxy-ethoxy)-phenyl]-methanone]
Fc1ccc(OCc2ccccc2)c(F)c1Cc1c[nH]c2ncc(-c3cccnc3)cc12 [Compound P-1455, 3-(3-Benzyloxy-2,6-difluoro-benzyl)-5-pyridin-3-yl-1H-pyrrolo[2,3-b]pyridine]
O=C(c1c[nH]c2ncc(Br)cc12)c1cccc2c1ccn2S(=O)(=O)c1ccccc1 [Compound P-1524, (1-Benzenesulfonyl-1H-indol-4-yl)(5-bromo-1H-pyrrolo[2,3-b]pyridin-3-yl)-methanone]
O=C(c1c(F)ccc(OCc2ccccc2)c1F)c1c[nH]c2ncc(-c3cccnc3)cc12 [Compound P-1467, (3-Benzyloxy-2,6-difluoro-phenyl)-(5-pyridin-3-yl-1H-pyrrolo[2,3-b]pyridin-3-yl)-methanone]
c1cnc2[nH]cc(Cc3ccc(NCC4CC4)nc3)c2c1 [Compound P-0400]
CC(C)(C)c1ccc(Cc2c[nH]c3ncccc23)cc1 [Compound P-0828]
COc1cccc(C(=O)c2c[nH]c3ncc(-c4cc(F)cc(F)c4)cc23)c1 [Compound P-0474]
COc1cnc2[nH]cc(C(=O)c3c(F)ccc(OCc4ccccc4)c3F)c2c1 [Compound P-1597, (3-Benzyloxy-2,6-difluoro-phenyl)-(5-methoxy-1H-pyrrolo[2,3-b]pyridin-3-yl)-methanone]
Brc1ccc(Cc2c[nH]c3ncccc23)cc1 [Compound P-0615]
Cc1ccc(F)cc1C(=O)c1c[nH]c2ncc(Br)cc12 [Compound P-0424]
COc1cccc(Cc2c[nH]c3ncc(-c4ccc(C(=O)C(F)(F)F)[nH]4)cc23)c1 [Compound P-0309]
OC(c1cccc2c1OC(F)(F)O2)c1c[nH]c2ncc(Br)cc12 (stereo not shown) [Compound P-1512]
O=C(c1c(F)ccc(Cl)c1F)c1c[nH]c2ncccc12 [Compound P-1272]
COc1ccc([N+](=O)[O-])cc1C(OC)c1c[nH]c2ncc(Br)cc12 (stereo not shown) [Compound P-1287]
O=C(c1c(F)ccc([N+](=O)[O-])c1F)c1c[nH]c2ncc(Br)cc12 [Compound P-1182]
